Experimental data from article PMC7206119, “RIP1 inhibition blocks inflammatory diseases but not tumor growth or metastases” (Cell Death and Differentiation, 2019).

Columns and labels:
Experiment in all cases: biochemical
Parameters in all cases: DiscoverX kinase panel, active-site competition binding (KINOMEscan type), percent of control at one concentration
Details in all cases: competition binding, percent of control
DDR2 = DDR2 (Homo sapiens, UniProt Q16832)
Excerpt: (§1) To investigate the potential therapeutic benefit of inhibiting RIP1, we developed GNE684 or (S)-N-((S)-7-methoxy-1-methyl-2-oxo-2,3,4,5-tetrahydro-1H-pyrido[3,4-b]azepin-3-yl)-5-phenyl-6,7-dihydro-5H-pyrrolo[1,2-b][1,2,4]triazole-2-carboxamide with cross-species potency against RIP1, exquisite kinase selectivity, and favorable pharmacological properties (Fig. 1a–h, S1, Tables S1 and S2, SI file 1). […] (Fig. 1b, S1, and Table S1). […] GNE684 inhibited human RIP1 potently in vitro, and mouse and rat RIP1 with slightly less potency (Fig. 1d). Accordingly, it inhibited TNF-induced necroptosis in human HT-29, mouse L929, or rat H9c2 cells (Fig. 1e). The cellular potency of GNE684 was confirmed in a human whole blood assay using TBZ (TNF, IAP antagonist BV6, and pan-caspase inhibitor zVAD) or LZ (LPS plus zVAD) to trigger necroptosis and the release of IL-1α and IL-1β (Fig. 1f).

CAMK1B = molecular target: T1, CAMK1B (Homo sapiens, UniProt Q6P2M8)
T1 construct: gene PNCK
Excerpt: as §1

MYLK2 = MYLK2 (Homo sapiens, UniProt Q9H1R3)
Excerpt: as §1

WNK3 = WNK3 (Homo sapiens, UniProt Q9BYP7)
Excerpt: as §1

MINK = molecular target: T2, MINK (Homo sapiens, UniProt Q8N4C8)
T2 construct: gene MINK1
Excerpt: as §1

PIKFYVE = PIKFYVE (Homo sapiens, UniProt Q9Y2I7)
Excerpt: as §1

[1] = molecular target: T3, RPS6KA5(Kin.Dom.2-C-terminal) (Homo sapiens, UniProt O75582)
T3 construct: Kin.Dom.2-C-terminal
Excerpt: as §1

AKT3 = AKT3 (Homo sapiens, UniProt Q9Y243)
Excerpt: as §1

PAK6 = PAK6 (Homo sapiens, UniProt Q9NQU5)
Excerpt: as §1

YANK1 = molecular target: T4, YANK1 (Homo sapiens, UniProt Q8WU08)
T4 construct: gene STK32A
Excerpt: as §1

PIK3CA(M1043I) = PIK3CA(M1043I) (Homo sapiens, UniProt P42336, M1043I)
Excerpt: as §1

[2] = molecular target: T5, ABL1(H396P)-phosphorylated (Homo sapiens, UniProt P00519, H396P)
T5 construct: phosphorylated
Excerpt: as §1

[3] = molecular target: T6, ABL1(Q252H)-nonphosphorylated (Homo sapiens, UniProt P00519, Q252H)
T6 construct: nonphosphorylated
Excerpt: as §1

FGFR4 = FGFR4 (Homo sapiens, UniProt P22455)
Excerpt: as §1

FRK = FRK (Homo sapiens, UniProt P42685)
Excerpt: as §1

MST1R = MST1R (Homo sapiens, UniProt Q04912)
Excerpt: as §1

[4] = molecular target: T7, RSK1(Kin.Dom.2-C-terminal) (Homo sapiens, UniProt Q15418)
T7 construct: gene RPS6KA1; Kin.Dom.2-C-terminal
Excerpt: as §1

CLK3 = CLK3 (Homo sapiens, UniProt P49761)
Excerpt: as §1

DRAK1 = molecular target: T8, DRAK1 (Homo sapiens, UniProt Q9UEE5)
T8 construct: gene STK17A
Excerpt: as §1

TXK = TXK (Homo sapiens, UniProt P42681)
Excerpt: as §1

MAP3K1 = MAP3K1 (Homo sapiens, UniProt Q13233)
Excerpt: as §1

MAP3K1, sequence (Q13233 whole entry): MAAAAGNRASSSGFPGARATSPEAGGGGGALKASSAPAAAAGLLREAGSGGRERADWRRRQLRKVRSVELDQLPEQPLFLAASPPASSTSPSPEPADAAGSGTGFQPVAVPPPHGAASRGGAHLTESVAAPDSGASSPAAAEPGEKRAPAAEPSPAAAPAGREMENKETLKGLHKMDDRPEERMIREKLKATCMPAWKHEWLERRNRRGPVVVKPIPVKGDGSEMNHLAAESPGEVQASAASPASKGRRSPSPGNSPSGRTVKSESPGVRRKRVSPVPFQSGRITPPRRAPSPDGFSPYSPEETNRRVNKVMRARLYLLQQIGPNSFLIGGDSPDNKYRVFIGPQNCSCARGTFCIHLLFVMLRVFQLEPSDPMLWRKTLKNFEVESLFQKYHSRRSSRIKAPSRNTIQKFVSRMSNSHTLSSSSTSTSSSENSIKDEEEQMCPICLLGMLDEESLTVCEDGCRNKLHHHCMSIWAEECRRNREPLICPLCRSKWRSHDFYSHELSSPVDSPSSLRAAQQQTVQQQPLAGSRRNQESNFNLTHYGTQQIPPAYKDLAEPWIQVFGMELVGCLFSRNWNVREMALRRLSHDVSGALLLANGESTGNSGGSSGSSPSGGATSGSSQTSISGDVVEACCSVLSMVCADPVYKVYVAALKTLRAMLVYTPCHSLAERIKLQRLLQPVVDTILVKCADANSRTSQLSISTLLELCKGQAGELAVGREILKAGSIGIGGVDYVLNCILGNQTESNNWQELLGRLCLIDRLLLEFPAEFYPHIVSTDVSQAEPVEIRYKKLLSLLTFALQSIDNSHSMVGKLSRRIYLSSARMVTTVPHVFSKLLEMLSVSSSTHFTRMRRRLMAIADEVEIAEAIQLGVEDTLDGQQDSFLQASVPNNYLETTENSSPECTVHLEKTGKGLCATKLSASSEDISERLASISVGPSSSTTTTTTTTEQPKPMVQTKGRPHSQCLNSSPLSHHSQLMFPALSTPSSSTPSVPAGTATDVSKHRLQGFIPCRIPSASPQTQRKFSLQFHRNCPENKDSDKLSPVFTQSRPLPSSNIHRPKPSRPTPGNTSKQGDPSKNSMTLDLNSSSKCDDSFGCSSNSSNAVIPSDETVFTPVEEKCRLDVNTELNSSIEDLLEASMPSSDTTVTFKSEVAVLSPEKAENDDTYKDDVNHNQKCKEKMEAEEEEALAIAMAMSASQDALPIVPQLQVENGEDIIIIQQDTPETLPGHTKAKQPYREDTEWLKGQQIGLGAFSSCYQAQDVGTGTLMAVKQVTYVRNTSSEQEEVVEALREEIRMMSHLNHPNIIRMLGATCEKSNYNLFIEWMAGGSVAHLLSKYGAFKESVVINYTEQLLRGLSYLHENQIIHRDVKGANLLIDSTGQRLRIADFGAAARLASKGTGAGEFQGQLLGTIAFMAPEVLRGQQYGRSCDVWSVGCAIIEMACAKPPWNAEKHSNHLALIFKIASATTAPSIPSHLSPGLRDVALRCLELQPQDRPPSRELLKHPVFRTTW
T4 sequence (Q8WU08 whole entry): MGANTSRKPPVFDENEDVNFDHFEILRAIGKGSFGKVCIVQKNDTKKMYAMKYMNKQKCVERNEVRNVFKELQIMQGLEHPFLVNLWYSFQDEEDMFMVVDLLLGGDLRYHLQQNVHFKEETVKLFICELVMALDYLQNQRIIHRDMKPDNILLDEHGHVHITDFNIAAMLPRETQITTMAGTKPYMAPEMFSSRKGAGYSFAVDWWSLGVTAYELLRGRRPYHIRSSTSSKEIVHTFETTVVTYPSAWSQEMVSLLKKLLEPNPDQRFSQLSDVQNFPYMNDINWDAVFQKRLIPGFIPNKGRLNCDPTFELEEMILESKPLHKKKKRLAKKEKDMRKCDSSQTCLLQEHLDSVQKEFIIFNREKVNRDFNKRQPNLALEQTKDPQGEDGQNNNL
MST1R, sequence (Q04912 whole entry): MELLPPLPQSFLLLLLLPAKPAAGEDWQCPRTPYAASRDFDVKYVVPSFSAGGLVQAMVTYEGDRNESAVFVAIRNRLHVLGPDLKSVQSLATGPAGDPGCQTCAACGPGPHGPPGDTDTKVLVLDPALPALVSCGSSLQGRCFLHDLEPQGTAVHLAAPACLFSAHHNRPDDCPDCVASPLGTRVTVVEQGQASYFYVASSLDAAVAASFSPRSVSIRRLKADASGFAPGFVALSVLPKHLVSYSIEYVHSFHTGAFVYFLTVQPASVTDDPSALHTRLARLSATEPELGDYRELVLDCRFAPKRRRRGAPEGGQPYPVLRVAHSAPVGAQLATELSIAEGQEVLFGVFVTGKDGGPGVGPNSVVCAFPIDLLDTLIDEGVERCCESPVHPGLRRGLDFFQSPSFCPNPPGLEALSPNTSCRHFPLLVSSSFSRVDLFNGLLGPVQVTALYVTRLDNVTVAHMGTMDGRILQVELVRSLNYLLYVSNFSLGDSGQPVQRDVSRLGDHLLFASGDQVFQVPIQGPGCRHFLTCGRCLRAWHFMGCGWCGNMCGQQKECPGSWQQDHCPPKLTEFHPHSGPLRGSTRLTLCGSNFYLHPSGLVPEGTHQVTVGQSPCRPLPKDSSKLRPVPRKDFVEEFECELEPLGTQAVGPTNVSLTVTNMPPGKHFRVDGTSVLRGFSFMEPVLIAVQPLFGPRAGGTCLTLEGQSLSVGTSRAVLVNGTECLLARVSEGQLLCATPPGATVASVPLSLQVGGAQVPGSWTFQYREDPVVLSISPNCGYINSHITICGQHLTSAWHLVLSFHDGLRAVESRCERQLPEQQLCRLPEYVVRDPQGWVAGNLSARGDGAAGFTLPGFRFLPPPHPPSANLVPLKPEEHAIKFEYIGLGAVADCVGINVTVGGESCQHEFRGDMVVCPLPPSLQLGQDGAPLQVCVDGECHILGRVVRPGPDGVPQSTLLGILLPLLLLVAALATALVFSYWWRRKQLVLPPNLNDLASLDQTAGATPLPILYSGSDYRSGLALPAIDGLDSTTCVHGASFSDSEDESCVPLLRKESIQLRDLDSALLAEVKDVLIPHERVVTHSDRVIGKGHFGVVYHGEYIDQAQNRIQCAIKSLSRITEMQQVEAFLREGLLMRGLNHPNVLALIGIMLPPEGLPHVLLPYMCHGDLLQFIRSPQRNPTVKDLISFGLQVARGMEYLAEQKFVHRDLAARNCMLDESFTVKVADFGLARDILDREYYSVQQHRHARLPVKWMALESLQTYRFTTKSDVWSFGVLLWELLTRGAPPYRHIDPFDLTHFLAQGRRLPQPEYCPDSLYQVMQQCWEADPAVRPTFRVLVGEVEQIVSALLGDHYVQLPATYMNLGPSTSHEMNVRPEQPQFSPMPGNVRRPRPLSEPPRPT
T8 sequence (Q9UEE5 whole entry): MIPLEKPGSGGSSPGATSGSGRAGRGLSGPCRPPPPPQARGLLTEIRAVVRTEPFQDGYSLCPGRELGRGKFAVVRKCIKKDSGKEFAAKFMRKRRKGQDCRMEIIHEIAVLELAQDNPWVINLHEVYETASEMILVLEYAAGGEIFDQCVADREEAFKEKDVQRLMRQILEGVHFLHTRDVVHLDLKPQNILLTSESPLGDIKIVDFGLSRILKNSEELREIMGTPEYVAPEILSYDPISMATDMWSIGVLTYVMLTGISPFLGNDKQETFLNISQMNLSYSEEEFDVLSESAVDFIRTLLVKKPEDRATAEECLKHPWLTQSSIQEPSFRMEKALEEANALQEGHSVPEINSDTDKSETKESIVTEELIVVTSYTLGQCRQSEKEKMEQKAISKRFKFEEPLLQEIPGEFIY
CLK3, sequence (P49761 whole entry): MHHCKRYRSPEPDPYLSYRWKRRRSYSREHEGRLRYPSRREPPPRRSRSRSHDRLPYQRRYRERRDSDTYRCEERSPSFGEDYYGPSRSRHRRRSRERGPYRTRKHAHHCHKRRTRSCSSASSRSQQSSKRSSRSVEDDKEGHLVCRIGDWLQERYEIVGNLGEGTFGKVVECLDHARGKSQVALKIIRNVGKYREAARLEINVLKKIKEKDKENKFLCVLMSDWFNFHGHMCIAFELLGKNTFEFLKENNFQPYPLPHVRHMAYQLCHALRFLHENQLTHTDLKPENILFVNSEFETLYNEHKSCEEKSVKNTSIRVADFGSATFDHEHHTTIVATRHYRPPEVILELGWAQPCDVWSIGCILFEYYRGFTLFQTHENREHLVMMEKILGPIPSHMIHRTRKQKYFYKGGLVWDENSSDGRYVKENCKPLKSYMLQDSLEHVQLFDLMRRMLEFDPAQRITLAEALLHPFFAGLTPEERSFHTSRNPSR
FRK, sequence (P42685 whole entry): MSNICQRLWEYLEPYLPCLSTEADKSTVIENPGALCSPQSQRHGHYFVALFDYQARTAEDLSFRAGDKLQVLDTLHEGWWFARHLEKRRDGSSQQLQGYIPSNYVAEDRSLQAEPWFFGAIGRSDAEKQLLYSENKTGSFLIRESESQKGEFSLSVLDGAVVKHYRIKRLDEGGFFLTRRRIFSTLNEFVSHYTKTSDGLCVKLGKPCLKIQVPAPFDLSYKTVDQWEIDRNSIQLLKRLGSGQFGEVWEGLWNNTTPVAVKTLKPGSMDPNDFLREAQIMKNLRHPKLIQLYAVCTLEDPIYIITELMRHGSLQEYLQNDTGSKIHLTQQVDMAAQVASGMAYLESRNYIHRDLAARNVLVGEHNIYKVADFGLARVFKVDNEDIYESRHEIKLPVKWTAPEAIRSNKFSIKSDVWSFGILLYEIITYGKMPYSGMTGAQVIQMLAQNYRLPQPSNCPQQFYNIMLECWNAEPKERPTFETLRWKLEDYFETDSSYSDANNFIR
T1 sequence (Q6P2M8 whole entry): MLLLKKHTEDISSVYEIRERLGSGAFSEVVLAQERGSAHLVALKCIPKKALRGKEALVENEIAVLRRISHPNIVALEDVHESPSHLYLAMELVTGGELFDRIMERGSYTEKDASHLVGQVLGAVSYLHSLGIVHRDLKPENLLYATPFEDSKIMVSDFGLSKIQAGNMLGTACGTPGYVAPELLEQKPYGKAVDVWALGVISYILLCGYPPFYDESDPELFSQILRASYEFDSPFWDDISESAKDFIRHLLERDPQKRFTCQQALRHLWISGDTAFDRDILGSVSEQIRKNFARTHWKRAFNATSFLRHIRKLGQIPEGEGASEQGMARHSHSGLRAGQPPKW

## COc1cc2c(cn1)N(C)C(=O)[C@@H](NC(=O)c1nc3n(n1)[C@H](c1ccccc1)CC3)CC2 [GNE684, (S)-N-((S)-7-methoxy-1-methyl-2-oxo-2,3,4,5-tetrahydro-1H-pyrido[3,4-b]azepin-3-yl)-5-phenyl-6,7-dihydro-5H-pyrrolo[1,2-b][1,2,4]triazole-2-carboxamide]
DDR2
  remaining binding at 10 µM: 100%
CAMK1B
  remaining binding at 10 µM: 100%
MYLK2
  remaining binding at 10 µM: 83%
WNK3
  remaining binding at 10 µM: 100%
MINK
  remaining binding at 10 µM: 100%
PIKFYVE
  remaining binding at 10 µM: 100%
[1]
  remaining binding at 10 µM: 100%
AKT3
  remaining binding at 10 µM: 75%
PAK6
  remaining binding at 10 µM: 100%
YANK1
  remaining binding at 10 µM: 100%
PIK3CA(M1043I)
  remaining binding at 10 µM: 99%
[2]
  remaining binding at 10 µM: 92%
[3]
  remaining binding at 10 µM: 68%
FGFR4
  remaining binding at 10 µM: 88%
FRK
  remaining binding at 10 µM: 100%
MST1R
  remaining binding at 10 µM: 94%
[4]
  remaining binding at 10 µM: 100%
CLK3
  remaining binding at 10 µM: 97%
DRAK1
  remaining binding at 10 µM: 92%
TXK
  remaining binding at 10 µM: 100%
MAP3K1
  remaining binding at 10 µM: 90%
